Reference: patent publication US20070155841A1, “Preventive agent for carcinogenesis of liver cancer containing quinone-based compound as active ingredient” (Eisai Co., Ltd., priority 2004, published 2007)

How the values were obtained:
[1] = test system: liver cancer (hepatocellular carcinoma) in female virus cirrhosis patients; experiment: Randomized clinical trial with 7-year follow-up: development of liver cancer in virus cirrhosis patients; type: in vivo, human; details: for Adjusted odds ratio for development of HCC (treatment group to control group): multivariate analysis adjusted for age, ALT, albumin, total bilirubin, platelet count, AFP, history of IFN-α, 95% CI 0.016-0.992, P 0.0491; for Crude odds ratio for development of HCC (treatment group to control group): univariate analysis, 95% CI 0.042-0.913, P 0.038
Method: A primary test was conducted targeting 50 female virus cirrhosis patients.
The diagnosis of cirrhosis was based on histological examination of liver specimens obtained by laparoscopy or needle biopsy performed under ultrasonic guidance.
Half were randomly assigned to receive 45 mg/day of vitamin K2 (Glakay;
Eisai Co., Tokyo, Japan) p.o., and half were assigned to the control group. Randomization was performed by placing the treatment assignments in sealed envelopes.
At the end of the first study, 21 patients in the treatment group and 19 patients in the control group agreed to participate in a longer trial. These patients were infected with the hepatitis C virus except for one patient in each group that had hepatitis B.
The clinical trial was conducted in accordance with the Helsinki Declaration and was approved by our ethics committee.
Statistical analysis was carried out with SAS software (version 8.12). The χ2 test was used to assess the homogeneity of groups. Cumulative incidences were plotted by the Kaplan-Meier method, and statistical significance of differences was analyzed by the log-rank test. Cox's regression analysis was used for univariate and multivariate analysis. In both studies, the two groups were similar with respect to age, the Child-Pugh stage, and the other clinical findings (See Table 1).

[2] = cited from earlier work
leukemia cells = details: in vitro, Patent Literature 1; cited from earlier work
[3] = test system: liver cancer which has been treated; details: Non-Patent Literature 6 and 7, cited from earlier work
tumor cells = details: Non-Patent Literature 5; cited from earlier work

Row | SMILES | Adjusted odds ratio for development of HCC (treatment group to control group) ([1]; listed as VK2) | Adjusted odds ratio for development of HCC (treatment group to control group) ([1]; listed as vitamin K2) | cumulative incidence percentage of liver cancer patients versus control group ([1]; treatment group, 45 mg/day p.o., 7-year follow-up, Kaplan-Meier (FIG. 1)) | patients who developed liver cancer ([1]; treatment group, 45 mg/day p.o., 7-year follow-up, control group 9 of 19) | Crude odds ratio for development of HCC (treatment group to control group) ([1]; listed as VK2) | Crude odds ratio for development of HCC (treatment group to control group) ([1]; listed as vitamin K2) | solubility in water [2] | differentiation induction activity (leukemia cells) | recurrence of treated liver cancer ([3]; patients who already had cancer) | survival percentage ([3]; patients with treated liver cancer) | induction of apoptosis (tumor cells)
1 | CC(C)=CCC/C(C)=C/CC/C(C)=C/CC/C(C)=C/CC1=C(C)C(=O)c2ccccc2C1=O [menatetrenone, 2-methyl-3-tetraprenyl-1,4-naphthoquinone] | 0.126 | 0.126 (0.016 to 0.992) | much smaller than that in the control group | 2 of 21 | 0.195 | 0.195 (from 0.042 to 0.913) | nearly insoluble in water | differentiation induction activity in leukemia cells | suppresses recurrence of liver cancer | heightens the survival percentage | –
2 | CC(C)=CCC/C(C)=C/CC/C(C)=C/CC/C(C)=C/CO [geranylgeraniol] | – | – | – | – | – | – | – | – | – | – | potent inducer of apoptosis in tumor cells
